A short description of series [1]: Acute toxicity, intravenous administration to male ddY-strain mice. Particulars: mouse, in vivo. The method, then:
The acute toxicity of the 5-isoquinolinesulfonyl derivatives and their pharmaceutically acceptable acid addition salts were measured by giving male ddY-strain mice an intravenous administration.

The test system of series [2] is vertebral artery. Put plainly: Effect on blood flow volume of vertebral artery of dog. Particulars: 1 mg/Kg intravenous; for change in vivo at 1 mg/kg: Canis lupus familiaris, read-out: Increased Blood Flow Volume in Vertebral Artery. It is filed as in vivo, dog of mixed breed. As to the method: (§1) The effect of the isoquinolinesulfonyl derivatives and the pharmaceutically acceptable acid addition salts of this invention on the vasodilatation of the femoral and vertebral arteries can be measured by anesthetizing a dog of mixed breed weighting 8 to 15 Kg by an intravenous administration of 35 mg/Kg of pentbarbital, providing an acute type probe (a product of Nippon Koden K.K., Japan) with the femoral and vertebral arteries, administering the isoquinolinesulfonyl derivatives and the pharmaceutically acceptable acid addition salts to the femoral vein through a polyethylene tube inserted into the femoral vein side chain and measuring the blood flow volume with an electromagnetic flowmeter (a product of Nippon Koden K.K., Japan, "MF-27"). Among the isoquinolinesulfonyl compounds of Formula (I) of this invention, those with l=0 and the [drawing 37] group show a high action for increasing blood flow and simultaneously a selectivity to vertebral arteries. For example, when 1 mg/Kg of 1-(5-isoquinolinesulfonyl)piperazine, i.e., Compound (35) was intravenously administered, the increased blood flow volumes in the vertebral artery and in the femoral artery were 98% and 65%, respectively. Also the isoquinolinesulfonyl compounds of Formula (I) of this invention with l=1 and one of the R2 and R3 groups=a hydrogen atom show a continuing blood flow increase. With 1 mg/Kg of N-(2-aminoethyl)-5-isoquinolinesulfonamide, i.e., Compound (1), an increase in the blood flow volume in the vertebral artery was continued for at least 30 minutes.
(§2) The effect on the vasodilatation of the femoral and vertebral arteries was measured by anesthetizing a dog of mixed breed weighing 8 to 15 Kg by an intravenous administration of 35 mg/Kg of pentabarbital, providing an acute type probe (a product of Nippon Koden K.K., Japan) with the femoral and vertebral arteries, administering the 5-isoquinolinesulfonyl derivatives and their pharmaceutically acceptable acid addition salts to the femoral vein through a polyethylene tube inserted into the femoral vein side chain and measuring the blood flow volume with an electromagnetic blood flowmeter (a product of Nippon Koden K.K., Japan, "MF-27").

Series [3] relates to femoral artery. Put plainly: Effect on blood flow volume of femoral artery of dog. It is filed as in vivo, dog of mixed breed. Particulars: 1 mg/Kg intravenous, anesthetized dog; for change in vivo at 1 mg/kg: Canis lupus familiaris, iv, read-out: Increased Blood Flow Volume in Femoral Artery. As to the method: as §1, §2
Series [4] deals with mesenteric artery. Put plainly: Relaxation of mesenteric artery (helical strips contracted with KCl, organ bath). More on the design: species or system rabbit (home bred, Japanese species). Particulars: Oryctolagus cuniculus; concentration for 50% relaxation; KCl 15~20 mM contraction; read-out: Relaxation of Mesenteric Artery ED50. As to the method:
After a home bred rabbit of a Japanese species weighing about 3 Kg was subjected to bloodletting, resulting in death and then to abdominal incision, the mesenteric artery was taken out, cut into helicoids of 2 mm×25 mm and suspended in a 20 ml organ bath filled with a Krebs-Henseleit solution into which a mixed gas of 95% by volume of O2 and 5% by volume of CO2 was introduced and one end of the artery was connected with an isometric transducer. When a load of 1.5 g was applied to the artery, the contraction and the relaxation of the artery were recorded as a weight on the transducer (a product of Nippon Koden K.K., Japan, "FD Pickup TB-912T"). The relaxation of the mesenteric artery was observed by adding the isoquinolinesulfonyl derivatives and their pharmaceutically acceptable acid addition salts of this invention to the mesenteric artery at the condition of about one half of the maximum contraction with KCl at a KCl concentration of 15~20 mM. When the complete relaxation of the mesenteric artery was designated 100%, the concentration of the isoquinolinesulfonyl derivatives and their pharmaceutically acceptable acid addition salts which brought about a relaxation of 50% is shown in Table 12.

SMILES strings stand for the structures.

For `NCCNS(=O)(=O)c1cccc2cnccc12` [Compound 1], the LD50 (commonly the dose at which mortality reaches 50%) in series [1] amounted to 108 mg/kg. Further, the change in vivo at 1 mg/kg in series [2] (anesthetized dog) amounted to 45%; in series [3], 30%.

As for `NCCCCNS(=O)(=O)c1cccc2cnccc12` [Compound 3], the LD50 in series [1] amounted to 87 mg/kg. In addition, the change in vivo at 1 mg/kg in series [2] (anesthetized dog) was 36%; in series [3], 33%.

For `CCCCN(CCCC)CCCNS(=O)(=O)c1cccc2cnccc12` [Compound 19], in series [1], the LD50 came out at 180 mg/kg. The change in vivo at 1 mg/kg in series [2] (anesthetized dog) is 20%; in series [3], 25%.

As to `CNS(=O)(=O)c1cccc2cnccc12` [Compound 25], the LD50 in series [1] amounted to 137 mg/kg. Moreover, the change in vivo at 1 mg/kg was 29% in series [2] (anesthetized dog) and 38% in series [3].

Compound `O=S(=O)(c1cccc2cnccc12)N1CCCC1` [Compound 33] returned an LD50 in series [1] of 150 mg/kg. The change in vivo at 1 mg/kg stood at 37% in series [2] (anesthetized dog) and 35% in series [3].

With `O=S(=O)(c1cccc2cnccc12)N1CCNCC1` [Compound 35], the median lethal dose (LD50) in series [1] amounted to 29 mg/kg. Besides, the change in vivo at 1 mg/kg in series [2] (anesthetized dog) was found to be 98%; in series [3], 69%.

On to `CN1CCN(S(=O)(=O)c2cccc3cnccc23)CC1` [Compound 36], for which the LD50 in series [1] is 94 mg/kg. In addition, the change in vivo at 1 mg/kg in series [2] (anesthetized dog) is 63%; in series [3], 35%.

Consider `CC1CN(S(=O)(=O)c2cccc3cnccc23)CCN1` (stereo not drawn) [Compound 37], for which the LD50 in series [1] turned out to be 89 mg/kg. The change in vivo at 1 mg/kg in series [2] (anesthetized dog) was found to be 90%; in series [3], 65%.

In series [1], `CC1CN(S(=O)(=O)c2cccc3cnccc23)C(C)CN1` (stereo not drawn) [Compound 40] returned an LD50 of 42 mg/kg. The change in vivo at 1 mg/kg in series [2] (anesthetized dog) came to 110%; in series [3], 50%.

In series [1], `CC(C)CC1CN(S(=O)(=O)c2cccc3cnccc23)CCN1` (stereo not drawn) [Compound 46] gave an LD50 of 130 mg/kg. Besides, the change in vivo at 1 mg/kg in series [2] (anesthetized dog) came to 55%; in series [3], 32%.

Regarding `CCCCCCN1CCN(S(=O)(=O)c2cccc3cnccc23)CC1` [Compound 51], in series [1], the LD50 turned out to be 108 mg/kg. Further, the change in vivo at 1 mg/kg was 68% in series [2] (anesthetized dog) and 39% in series [3].

On to `O=S(=O)(c1cccc2cnccc12)N1CCN(CC=Cc2ccccc2)CC1` [Compound 59], for which, in series [1], the LD50 was determined as 145 mg/kg. The change in vivo at 1 mg/kg amounted to 49% in series [2] (anesthetized dog) and 25% in series [3].

As for `NCCNS(=O)(=O)c1cccc2cnccc12` [Compound (1), N-(2-aminoethyl)-5-isoquinolinesulfonamide], the “Duration of increase in the blood flow volume in the vertebral artery” value in series [2] (dog) was “at least 30 minutes”. Further, the EC50 in series [4] came out at 5 µM.

Turning to `O=S(=O)(c1cccc2cnccc12)N1CCNCC1` [Compound (35), 1-(5-isoquinolinesulfonyl)piperazine], the “Increased Blood Flow Volume in Vertebral Artery” value in series [2] (anesthetized dog) is given as 98%. Moreover, in series [4], the EC50 was found to be 0.6 µM. The “Increased Blood Flow Volume in Femoral Artery” value in series [3] is 65%.

With `CC(C)C1CN(S(=O)(=O)c2cccc3cnccc23)CCN1` (stereo not drawn) [Compound (45), 1-(5-isoquinolinesulfonyl)-3-isopropylpiperazine], the EC50 in series [4] stood at 7.5 µM.

On to `CC(C)CC1CN(S(=O)(=O)c2cccc3cnccc23)CCN1` (stereo not drawn) [Compound (46), 1-(5-isoquinolinesulfonyl)-3-isobutylpiperazine], for which the EC50 in series [4] came to 6.5 µM.

Turning to `CC(C)CN1CCN(S(=O)(=O)c2cccc3cnccc23)CC1` [Compound (47), 1-(5-isoquinolinesulfonyl)-4-isobutylpiperazine], the EC50 in series [4] was determined as 24 µM.

Take `CCC1CN(S(=O)(=O)c2cccc3cnccc23)C(CC)CN1` (stereo not drawn) [Compound (48), 1-(5-isoquinolinesulfonyl)-2,5-diethylpiperazine]: the EC50 in series [4] stood at 1.8 µM.

Regarding `CC(C)CC1CN(S(=O)(=O)c2cccc3cnccc23)C(C)CN1` (stereo not drawn) [Compound (49), 1-(5-isoquinolinesulfonyl)-2-methyl-5-isobutylpiperazine], the EC50 in series [4] was 10 µM.

With `CC1CNC(Cc2ccccc2)CN1S(=O)(=O)c1cccc2cnccc12` (stereo not drawn) [Compound (50), 1-(5-isoquinolinesulfonyl)-2-methyl-5-benzylpiperazine], the EC50 in series [4] was 16 µM.

For the compound `CCCCCCN1CCN(S(=O)(=O)c2cccc3cnccc23)CC1` [Compound (51), 1-(5-isoquinolinesulfonyl)-4-hexylpiperazine], in series [4], the EC50 amounted to 19 µM.

For the compound `O=S(=O)(c1cccc2cnccc12)N1CCNC(c2ccccc2)C1` (stereo not drawn) [Compound (53), 1-(5-isoquinolinesulfonyl)-3-phenylpiperazine], the EC50 in series [4] turned out to be 7 µM.

For the compound `O=S(=O)(c1cccc2cnccc12)N1CCNC(Cc2ccccc2)C1` (stereo not drawn) [Compound (54), 1-(5-isoquinolinesulfonyl)-3-benzylpiperazine], the EC50 in series [4] worked out at 11 µM.

Regarding `O=S(=O)(c1cccc2cnccc12)N1CCN(c2ccccc2)CC1` [Compound (55), 1-(5-isoquinolinesulfonyl)-4-phenylpiperazine], in series [4], the EC50 was found to be 9 µM.

Turning to `O=S(=O)(c1cccc2cnccc12)N1CCN(Cc2ccccc2)CC1` [Compound (56), 1-(5-isoquinolinesulfonyl)-4-benzylpiperazine], in series [4], the EC50 was found to be 23 µM.

Regarding `O=S(=O)(c1cccc2cnccc12)N1CCN(CCc2ccccc2)CC1` [Compound (57), 1-(5-isoquinolinesulfonyl)-4-phenethylpiperazine], in series [4], the EC50 stood at 12 µM.

As for `O=C(c1ccccc1)N1CCN(S(=O)(=O)c2cccc3cnccc23)CC1` [Compound (58), 1-(5-isoquinolinesulfonyl)-4-benzoylpiperazine], the EC50 in series [4] was 40 µM.

For `O=S(=O)(c1cccc2cnccc12)N1CCN(CC=Cc2ccccc2)CC1` [Compound (59), 1-(5-isoquinolinesulfonyl)-4-cinnamylpiperazine], the EC50 in series [4] stood at 6.8 µM.

Take `O=C(C=Cc1ccccc1)N1CCN(S(=O)(=O)c2cccc3cnccc23)CC1` [Compound (60), 1-(5-isoquinolinesulfonyl)-4-cinnamoylpiperazine]: the EC50 in series [4] came to 27 µM.

Regarding `O=C(c1ccco1)N1CCN(S(=O)(=O)c2cccc3cnccc23)CC1` [Compound (61), 1-(5-isoquinolinesulfonyl)-4-furoylpiperazine], the EC50 in series [4] is 24 µM.

Consider `CCOC(CN1CCN(S(=O)(=O)c2cccc3cnccc23)CC1)c1ccccc1` (stereo not drawn) [Compound (63), 1-(5-isoquinolinesulfonyl)-4-(2-ethoxy-2-phenylethyl)piperazine], for which, in series [4], the EC50 was determined as 13 µM.

As for `CN(CCNS(=O)(=O)c1cccc2cnccc12)Cc1ccccc1` [Compound (65), N-[2-(N-methyl-N-benzylamino)ethyl]-5-isoquinolinesulfonamide], the EC50 in series [4] was 13 µM.

On to `CC(C)N(CCNS(=O)(=O)c1cccc2cnccc12)Cc1ccccc1` [Compound (67), N-[2-(N-isopropyl-N-benzylamino)ethyl]-5-isoquinolinesulfonamide], for which the EC50 in series [4] was determined as 18 µM.

These data come from patent publication US4525589A, “Isoquinolinesulfonyl derivatives” (Asahi Kasei Kogyo Kabushiki Kaisha, priority 1981, dated 1985).
